Data from PubChem BioAssay AID743267 (Broad Institute, 2014).

Tested on: human bronchial epithelial cells, CFTR corrector, plate reader
Experiment: CFTR ΔF508 corrector activity in bronchial cells, dose response, human bronchial epithelial cells, plate reader, cherry-pick, two tests (AID 743267)
[1] = measured here: test 2 replicate run
[2] = measured here: test 1 replicate run

Row | SMILES | AC50 [1] [µM] | AC50 [2] [µM]
1 | CCN(CC)c1ccc(/C=N/NC(=O)c2ccco2)c(O)c1 | 2.3 | 
2 | COc1cccc(-c2cccc(-c3nc(C(=O)NCC(F)(F)F)cc4c3[C@H](CCO)N([S@@](=O)C(C)(C)C)C4)c2)c1 |  | 2.75
3 | Cc1nn2cc(-c3cccc(Cl)c3)cnc2c1Br | 3.81 | 
4 | COC(=O)c1ccc(C(=O)NC2CCCc3c2cnn3-c2cc(F)cc(F)c2)nc1 (stereo unspecified) | 8.13 | 
5 | CN(CCOc1ccc(Cl)cc1)C(=O)c1cccc(S(=O)(=O)N2CCN(c3ccccc3)CC2)c1 | 16 | 
6 | C=C1C(=O)O[C@@H]2C[C@@H](C)[C@@H]3C=CC(=O)[C@@]3(C)[C@@H](O)[C@H]12 | 0.989 | 
7 | COC(=O)c1ccc(C(=O)NC2CCCc3c2cnn3-c2ccc(C)c(C)c2)cc1 (stereo unspecified) | 1.02 | 
8 | COc1ccc(-c2nc(-c3cccc(C)c3)no2)cc1OC | 9.13 | 
9 | O=C(NCc1ccccc1)C1Cc2c(-c3cccc(F)c3)ccnc2O1 (stereo unspecified) | 0.893 | 
10 | Cc1ccc(NC(=O)c2ccc(Cl)c(S(=O)(=O)Nc3c(C)n(C)n(-c4ccccc4)c3=O)c2)cc1Cl | 30.3 | 
11 | Cc1cccc(N(C)S(=O)(=O)c2ccc(-c3cc(C)no3)s2)c1 | 0.738 | 
12 | O=C(Nc1ccc(Cl)cn1)c1cccc2ccccc12 | 8.46 | 
13 | COc1cc(/C=C2\SC(=S)N(NC(=O)c3ccncc3)C2=O)ccc1O | 13.2 | 
14 | CNc1ccc2c3c(cccc13)C(=O)N(C)C2=O | 7.59 | 
15 | CC1(S(=O)(=O)O)CC(=O)c2ccccc2C1=O (stereo unspecified) | 28.6 | 
16 | COc1ccccc1N=C1SC(C(=O)Nc2cccc(Cl)c2Cl)C(N)=C1C(N)=O (stereo unspecified) | 6.08 | 
17 | O=C1OCC2=C1C(c1ccc3c(c1)OCO3)c1cc3c(cc1O2)OCO3 (stereo unspecified) | 2.12 | 
18 | CN1C(=O)c2cc(NC(=O)c3ccc(Cl)cc3)ccc2OC[C@@H]2O[C@H](CC(=O)NCc3cccc(F)c3)CC[C@H]21 |  | 4.62
19 | N#C/C(=C/c1ccc(N2CCCCC2)o1)C(=O)Nc1ccc2ccccc2c1 | 6.64 | 
20 | Cc1ccc2c(C)c3ccc4ccccc4c3c[n+]2c1 | 1.06 | 
21 | CCN1CCN(c2cc(C)c3cc(NC(=O)c4ccc(OC)c(OC)c4)ccc3n2)CC1 | 1.61 | 
22 | COc1ccc(Nc2nc3cc(-c4sccc4C)sc3c(=O)n2C)cc1OC | 2.15 | 
23 | COc1ccc(NC(=O)c2nc(C)c(C3(C)CC(c4ccccc4)=NO3)s2)cc1 (stereo unspecified) | 3.49 | 
24 | COc1ccc(C2=Nn3c(nnc3-c3ccccc3OC)SC2)cc1OC1CCOC1 (stereo unspecified) | 0.973 | 
25 | COC(=O)c1ccc(/C=C/c2c(-c3ccc(OC)cc3)oc3ccc(N4CCOCC4)cc23)cc1 | 16 | 
26 | CC(=O)Nc1ccc(-c2csc(NC(=O)CN3C(=O)NC4(CCCC4)C3=O)n2)cc1 | > 50 | 

Row | SMILES | AC50 [1] [µM] | AC50 [2] [µM]
27 | CCC1(C)OC(c2ccccc2)=C/C(=C/C=C2C(=O)NC(=O)NC2=O)O1 (stereo unspecified) | 38.7 | 
28 | CCc1ccc(N2CC(C(=O)Nc3ccccc3N3CCCC3)CC2=O)cc1 (stereo unspecified) | 28.7 | 
29 | NS(=O)(=O)c1ccc(CCNc2nn3c(-c4cccc(OC(F)(F)F)c4)cnc3s2)cc1 | 1.99 | 
30 | COc1ccc(C)cc1Nc1c2c(nc3ccccc13)CCC2 | 0.708 | 
31 | COc1cc(C(=O)c2cocc2C(=O)c2ccc3c(c2)OCO3)cc(OC)c1OC | 0.451 | 
32 | CCOc1ccc2[nH]c(C(=O)N/N=C/c3ccc(OC)cc3)cc2c1 | 36.4 | 
33 | CCN(CC)c1ccc(/C=N/NC(=O)c2cnccn2)c(O)c1 | 2.2 | 
34 | NCC(=O)NNC(=O)OCC1c2ccccc2-c2ccccc21 | 7.38 | 
35 | CCc1cc(-c2nnn(CCC3COCCO3)c2CC)ccc1-c1cn(Cc2ccc3ccccc3c2)nn1 (stereo unspecified) | 0.6 | 
36 | COc1ccc(S(=O)(=O)Cc2ccc(C(=O)N3CCN(c4cccc(C)c4)C(C)C3)o2)cc1 (stereo unspecified) | 3.68 | 
37 | CC(C)Oc1ncnc2c1[nH]c1ccccc12 | 9.38 | 
38 | Cc1cccc(N(C)C(=O)c2cc3c(=O)[nH]c4ccc(C)cc4c3s2)c1 | 4.72 | 
39 | COc1cc(C(=O)Nc2ccc3c(c2)CCN3C(C)=O)cc(OC)c1OC | 3.56 | 
40 | COc1cc2c(cc1OC)C(c1cccs1)N(C(=O)c1cccnc1)CC2 (stereo unspecified) | 4.9 | 
41 | CCN(CC(=O)Nc1c(F)cccc1F)C(=O)C1CC1 | 33.1 | 
42 | CCOC(=O)c1sc(Nc2nc(C)cc(C)n2)nc1C | 11.5 | 
43 | CC/C=C/CC(=O)N[C@@H](c1ccccc1)[C@@H](O)C(=O)O[C@H]1C[C@@]2(O)[C@@H](OC(=O)c3ccccc3)C3[C@](C)(C(=O)[C@H](OC(C)=O)C(=C1C)C2(C)C)[C@@H](O)C[C@H]1OC[C@@]31OC(C)=O (stereo partly specified) | 3.4 | 
44 | CCN(C(=O)CSc1nc2ccccc2c(=O)n1-c1ccccc1F)C1CCS(=O)(=O)C1 (stereo unspecified) | 0.253 | 
45 | CC[N+]1(CC)CC2=Cc3ccccc3CC2C1 (stereo unspecified) | 27.8 | 
46 | Cc1ccc(-c2csc(Nc3ccccn3)n2)cc1 | 26.4 | 
47 | Nc1ccn([C@@H]2O[C@H](C(=O)NCC(F)(F)F)[C@@H](O)[C@H]2O)c(=O)n1 | > 50 | 
48 | C=C1SC(Nc2c(C)cc(C)cc2C)=NC12CCCCC2 | 5.37 | 
49 | O=C1c2cccc3c(O)ccc(c23)C(=O)N1c1ccc(Cl)cc1 | 16.8 | 
50 | c1ccc(CCNc2nc(-c3ccccn3)nc3ccccc23)cc1 | 2.77 | 
51 | COc1ccccc1NS(=O)(=O)c1cc(N=N/C(C(=O)Nc2ccc(Cl)cc2)=C(/C)O)ccc1C | 36.6 | 
52 | O=S(=O)(Nc1ccc(F)cc1Cl)c1ccc(-c2cnc(C3CC3)o2)cc1 | 2.23 | 

Row | SMILES | AC50 [1] [µM] | AC50 [2] [µM]
53 | Nc1ccc2c3c(cccc13)C(=O)N(c1ccccc1)C2=O | 16 | 
54 | C#C[C@]1(O)CC[C@H]2[C@@H]3CCc4cc(OC)ccc4[C@H]3CC[C@@]21C | 2.48 | 
55 | COc1ccc(NC(=O)C2(C)Cc3c(-c4cccc(NC(C)=O)c4)ccnc3O2)cc1 (stereo unspecified) | 4.58 | 
56 | N#Cc1c(-c2ccc(F)cc2)c(-c2ccc(F)cc2)nn(CCO)c1=O | 2.57 | 
57 | O=C(O)CCCCCCCCc1cn(Cc2ccc(C(=O)c3ccccc3)cc2)nn1 | 2.17 | 
58 | COc1nc(C)nc(NC(=O)NS(=O)(=O)c2ccccc2Cl)n1 | > 50 | 
59 | COC(=O)c1cn(NC(=O)c2cc([N+](=O)[O-])ccc2F)c(=O)c2ccccc12 | 1.21 | 
60 | CN(C)CCNc1ccc2ncn3c4ccc(O)cc4c(=O)c1c23 | 2.03 | 
61 | Cc1cccc(NS(=O)(=O)c2ccc(-c3cnc(C4CC4)o3)cc2)c1 | 1.59 | 
62 | COc1ccccc1N1CCN(C(=O)c2ccc(-c3ccc(Cl)cc3)o2)CC1 | 6.64 | 
63 | O=S(=O)(Cc1ccc(Cl)cc1Cl)c1ccc(Cl)cc1 | 2.72 | 
64 | CC(=O)O[C@H]1C(=O)[C@@]2(C)C([C@H](OC(=O)c3ccccc3)[C@]3(O)C[C@H](OC(=O)[C@H](O)[C@@H](NC(=O)c4ccccc4)c4ccccc4)C(C)=C1C3(C)C)[C@]1(OC(C)=O)CO[C@@H]1C[C@H]2O (stereo partly specified) | 5.6 | 
65 | Cc1cccc(N2CCN(C(=O)c3c(-c4ccccc4)noc3C)CC2)c1C | 2.59 | 
66 | CCOC(=O)c1c(C)[nH]c(C(=O)N/N=C/c2ccc(OC)c(OC)c2)c1C | 2.93 | 
67 | CC(C)CN(CCCNC(=O)CN1C(=O)CSc2ccc(S(=O)(=O)N3CCOCC3)cc21)CC(C)C | > 50 | 
68 | COc1cccc(C2=CC(c3ccccc3)n3nnnc3N2)c1 (stereo unspecified) | 3.85 | 
69 | COc1ccc(NCC(=O)n2c(C)c(C)c3ccccc32)cc1 | 5.59 | 
70 | COc1cc(/C=C2\SC(=Nc3ccc(Cl)c(C(=O)O)c3)NC2=O)c(Br)c(Br)c1O | 6.66 | 
71 | COc1ccc(/C(C)=N/NC(=O)c2cccc(S(=O)(=O)N3CCCC3)c2)c(O)c1 | > 50 | 
72 | Cc1ccc(N(C)S(=O)(=O)c2ccc(-c3cnc(C4CC4)o3)cc2)cc1 | 1.17 | 
73 | Fc1ccccc1/C=N/NC(=S)Nc1ccc(Cl)cc1Cl | 1.62 | 
74 | CCOC(=O)c1cc2c(=Cc3ccc(N(C)C)cc3)c3ccccc3n2[n+]1C | 5.09 | 
75 | O=[N+]([O-])c1ccc(Sc2cccc[n+]2[O-])c2nonc12 | 12.7 | 
76 | CC1(C(=O)NCc2ccco2)Cc2c(-c3ccc4c(c3)OCO4)ccnc2O1 (stereo unspecified) | 1.88 | 
77 | COc1c(O[C@@H]2O[C@H](CO)[C@@H](O)[C@H](O)[C@H]2O)cc2c(c1OC)-c1ccc(SC)c(=O)cc1C(NC(C)=O)CC2 (stereo partly specified) | > 50 | 
78 | Cc1ccc(N2C(=O)c3cccc4c([N+](=O)[O-])ccc(c34)C2=O)c2cccnc12 | 18.8 | 

Row | SMILES | AC50 [1] [µM] | AC50 [2] [µM]
79 | Cc1cc2c(cc1C)C(c1ccccc1OC(C)C)CC(=O)N2 (stereo unspecified) | 1.85 | 
80 | N#CC1=C(N)OC2=C(CCc3ccccc32)C1c1ccccc1Cl (stereo unspecified) | 2.61 | 
81 | O=S1(=O)c2ccc(Br)cc2N2CCC[C@H]2CN1Cc1ccccc1 | 1.77 | 
82 | CCCCn1c(CN2CCN(c3cccc(Cl)c3)CC2)nc2c1c(=O)[nH]c(=O)n2C | 4.31 | 
83 | C[C@H](CO)N1C[C@H](C)[C@@H](CN(C)Cc2ccc(Cl)c(Cl)c2)Oc2ccc(NC(=O)Nc3ccc(C(F)(F)F)cc3)cc2CC1=O |  | 16
84 | COC(=O)c1ccccc1-c1c2ccc(=N)cc-2oc2cc(N)ccc12 | 0.181 | 
85 | COc1cc(C(=O)Nc2ccc(C)cc2)c2ccccc2n1 | 1.26 | 
86 | CCOC(=O)N1CCN(S(=O)(=O)c2ccc3c(c2)C(C)C(=O)N3)CC1 (stereo unspecified) | > 50 | 
87 | COc1ccc(Nc2nc(-c3sc(C)nc3C)cs2)cc1 | 0.272 | 
88 | CCN(CC)C1=CC2=CC(=C(C#N)C#N)CCC2CC1 (stereo unspecified) | 0.948 | 
89 | COc1ccc([C@H]2CC(=O)C=C(c3ccc(OC)cc3OC)C2)cc1 | 0.681 | 
90 | Cn1cccc1/C=C1\SC(=Nc2ccccc2)NC1=O | 2.89 | 
91 | COc1ccccc1Cc1c(-c2ccc(Cl)cc2)nc2ccc(Br)cn12 | 8.16 | 
92 | COc1cccc2c1C(=O)c1c(O)c3c(c(O)c1C2=O)CC(O)(C(C)=O)CC3OC1CC(N(C)C)C(O)C(C)O1 (stereo unspecified) | 14.8 | 
93 | O=C(C1CC1)N1CC(=O)N2[C@H](CO)[C@@H](c3ccc(-c4ccccc4F)cc3)[C@@H]2C1 |  | 8.99
94 | COc1cccc(-c2ccc(C3[C@@H]4CN(S(=O)(=O)c5cccc(OC)c5)C[C@H]3N4)cc2)c1 (stereo partly specified) |  | 13.5
95 | CCOc1ccc(NC(=O)CN(c2ccc([N+](=O)[O-])cc2)S(=O)(=O)c2ccccc2)cc1 | 18.1 | 
96 | O=C1c2ccccc2C(=O)N1Cc1cnc(N2CCN(c3ccccc3)CC2)s1 | 44.1 | 
97 | COc1ccc(S(=O)(=O)N2CC[C@@H]3[C@@H](CO)N(C)c4ccc(-c5ccc(F)cc5)cc4[C@@H]32)cc1 |  | 13
98 | CO[C@@H](CN(C)S(=O)(=O)c1ccc(C)cc1)[C@H](C)CN([C@@H](C)CO)S(=O)(=O)c1cccc(Cl)c1 |  | 5.49
99 | COc1ccc(-c2ccc3c(c2)[C@H]2[C@H](CCN2S(=O)(=O)c2ccc(OC)cc2)[C@@H](CO)N3)cc1 |  | 7.37
100 | COc1cccc(N2CCN(C(=O)c3ccc(CS(=O)c4ccc(C)cc4)o3)CC2)c1 (stereo unspecified) | 0.539 | 
101 | COc1ccc(S(=O)(=O)Nc2ccc3c(c2)C(=O)N([C@H](C)CO)C[C@@H](C)[C@@H](CN(C)Cc2ccc(Cl)c(Cl)c2)O3)cc1 |  | 4.82
